Results reported in ChEMBL document CHEMBL1157637, “Potent DNA-directed alkylating agents: Synthesis and biological activity of phenyl N-mustard-quinoline conjugates having a urea or hydrazinecarboxamide linker” (Bioorg Med Chem, 2010).
Activity calls are given as the source filed them. No cut-off for these calls is given here.

Assays:
CCRF-CEM [1] = assay: Cytotoxicity against taxol-resistant human CCRF-CEM cells after 72 hrs by XTT assay; format: functional, cell-based
HCT-116 = assay: Cytotoxicity against human HCT116 cells after 72 hrs by SRB assay; format: functional, cell-based; conditions: HCT-116, 72 h
MCF7 = assay: Cytotoxicity against human MCF7 cells after 72 hrs by alamar blue assay; format: functional, cell-based; conditions: MCF7, 72 h
CCRF-CEM [2] = assay: Cytotoxicity against human CCRF-CEM cells after 72 hrs by XTT assay; format: functional, cell-based
MX1 [3] = assay: Antitumor activity against human MX1 cells xenografted in nu/nu nude mouse assessed as complete tumor remission at 150 mg/kg, iv administered as injection in Q2D x 5 schedule measured on day 16; format: functional, organism-based; design: dose 150 mg/kg
Mus musculus [4] = assay: Toxicity in nu/nu nude mouse assessed as body weight loss at 150 mg/kg, iv administered as injection in Q2D x 5 schedule measured on day 16; format: organism-based; design: dose 150 mg/kg, route intravenous; conditions: in vivo
[5] = Metabolic stability in rat plasma assessed as half life; format: ADME, cell-free
MX1 [6] = assay: Cytotoxicity against human MX1 cells after 72 hrs by SRB assay; format: functional, cell-based; conditions: MX1, 72 h
Nucleic Acid [7] = assay: Binding affinity to pEGFP-N1 DNA assessed as formation of interstrand cross-links with DNA by alkaline gel shift assay; format: nucleic-acid assay
MX1 [8] = assay: Antitumor activity against human MX1 cells xenografted in nu/nu nude mouse assessed as complete tumor remission at 150 mg/kg, iv administered as injection in Q2D x 5 schedule measured on day 70; format: functional, organism-based; design: dose 150 mg/kg
PC-3 = assay: Cytotoxicity against human PC3 cells after 72 hrs by alamar blue assay; format: functional, cell-based; conditions: PC-3, 72 h
[9] = Cytotoxicity against human H1299 cells after 72 hrs by alamar blue assay; format: functional, cell-based; conditions: NCI-H1299, 72 h
Mus musculus [10] = assay: Toxicity in nu/nu nude mouse assessed as body weight loss at 150 mg/kg, iv administered as injection in Q2D x 5 schedule measured on day 18; format: organism-based; design: dose 150 mg/kg, route intravenous; conditions: in vivo
CCRF-CEM [11] = assay: Cytotoxicity against vinblastine-resistant human CCRF-CEM cells after 72 hrs by XTT assay; format: functional, cell-based
[12] = Cytotoxicity against human CL1-5 cells after 72 hrs by alamar blue assay; format: functional, cell-based; conditions: CL1-5, 72 h
Nucleic Acid [13] = assay: Binding affinity to DNA in human H1299 cells assessed as formation of DNA cross-links after irradiation by modified single cell gel electrophoresis comet assay; format: cell-based
CCRF-CEM [14] = assay: Selectivity ratio of IC50 for vinblastine-resistant human CCRF-CEM cells to IC50 for human CCRF-CEM cells; format: functional
Mus musculus [15] = assay: Toxicity in nu/nu nude mouse assessed as body weight loss at 100 mg/kg, iv administered as injection in Q2D x 6 schedule; format: organism-based; design: dose 100 mg/kg, route intravenous; conditions: in vivo
NCI/ADR-RES = assay: Antitumor activity against human MCF7/ADR cells xenografted in nu/nu nude mouse at 100 mg/kg, iv administered as injection in Q2D x 6 schedule; format: functional, organism-based; design: dose 100 mg/kg
CCRF-CEM [16] = assay: Selectivity ratio of IC50 for taxol-resistant human CCRF-CEM cells to IC50 for human CCRF-CEM cells; format: functional
Nucleic Acid [17] = assay: Binding affinity to DNA in human H1299 cells assessed as formation of DNA cross-links at 10 uM followed by irradiation by modified single cell gel electrophoresis comet assay; format: cell-based
[18] = Cytotoxicity against human CL1-0 cells after 72 hrs by alamar blue assay; format: functional, cell-based; conditions: CL1-0, 72 h

For `Cc1cc(NC(=O)Nc2ccc(N(CCCl)CCCl)cc2)c2ccccc2n1`, the IC50 (CCRF-CEM [1]) was 0.429 µM, the IC50 (HCT-116) was 1.42 µM and the IC50 (MCF7) was 9.08 µM. The IC50 (CCRF-CEM [2]) was 0.193 µM, the Activity (MX1 [3]) was “Active” and the Activity (Mus musculus [4]) was 2%. For the same molecule, the half-life [5] was 16.5 h, the IC50 (MX1 [6]) was 0.343 µM and the Activity (Nucleic Acid [7]) was “Active”. For the same molecule, the Activity (MX1 [8]) was “Active”, the IC50 (PC-3) was 9.52 µM and the IC50 [9] was 1.98 µM. The Activity (Mus musculus [10]) was “Non-toxic”, the IC50 (CCRF-CEM [11]) was 0.664 µM and the IC50 [12] was 9.45 µM. The Activity (Nucleic Acid [13]) was “Dose-dependent effect”, the “Ratio IC50” value (CCRF-CEM [14]) was 3.4 and the Activity (Mus musculus [15]) was “Non-toxic”. For the same molecule, the Activity (NCI/ADR-RES) was “Active”, the “Ratio IC50” value (CCRF-CEM [16]) was 2.2 and the Activity (Nucleic Acid [17]) was 31.3%. For the same molecule, the IC50 [18] was 9.02 µM.
